{"source": "patent US5378725A", "about": "“Inhibition of phosphatidylinositol 3-kinase with wortmannin and analogs thereof” (The Arizona Board of Regents, priority 1993, dated 1995)", "key": {"[1]": {"molecular_target": "T1, purified bovine brain PI 3-kinase (Bos taurus, UniProt P32871)", "T1 construct": "PI 3-kinase was prepared from bovine brain; from tissue; host or cells: bovine brain", "T1 sequence (P32871 whole entry)": "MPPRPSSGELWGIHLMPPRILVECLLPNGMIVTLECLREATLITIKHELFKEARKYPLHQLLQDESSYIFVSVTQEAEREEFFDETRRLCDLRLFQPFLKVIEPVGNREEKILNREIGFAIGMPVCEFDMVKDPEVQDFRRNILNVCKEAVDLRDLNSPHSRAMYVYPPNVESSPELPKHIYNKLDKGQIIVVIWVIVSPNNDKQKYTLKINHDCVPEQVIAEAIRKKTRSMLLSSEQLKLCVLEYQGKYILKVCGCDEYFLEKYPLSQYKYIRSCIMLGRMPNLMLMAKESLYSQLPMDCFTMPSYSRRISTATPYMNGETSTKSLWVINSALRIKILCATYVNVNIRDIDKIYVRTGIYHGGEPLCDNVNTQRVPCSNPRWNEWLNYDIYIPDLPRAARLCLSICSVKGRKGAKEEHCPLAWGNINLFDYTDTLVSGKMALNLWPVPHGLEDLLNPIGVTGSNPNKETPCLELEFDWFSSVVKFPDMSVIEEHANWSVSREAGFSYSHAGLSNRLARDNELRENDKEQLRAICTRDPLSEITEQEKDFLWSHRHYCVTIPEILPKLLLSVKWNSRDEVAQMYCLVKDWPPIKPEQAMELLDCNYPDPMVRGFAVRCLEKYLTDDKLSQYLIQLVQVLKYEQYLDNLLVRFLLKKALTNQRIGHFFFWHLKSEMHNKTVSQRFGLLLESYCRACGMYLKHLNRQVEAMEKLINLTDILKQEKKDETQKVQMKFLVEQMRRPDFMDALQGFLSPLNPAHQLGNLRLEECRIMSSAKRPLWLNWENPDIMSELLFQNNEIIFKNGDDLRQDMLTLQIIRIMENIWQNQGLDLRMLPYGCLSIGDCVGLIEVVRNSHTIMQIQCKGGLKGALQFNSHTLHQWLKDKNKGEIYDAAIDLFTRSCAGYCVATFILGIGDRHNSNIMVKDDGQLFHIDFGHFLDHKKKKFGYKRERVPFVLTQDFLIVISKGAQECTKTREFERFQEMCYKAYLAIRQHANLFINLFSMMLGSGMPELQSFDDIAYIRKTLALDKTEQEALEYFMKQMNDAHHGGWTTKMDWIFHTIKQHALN", "T1 sequence (P23727 whole entry partner)": "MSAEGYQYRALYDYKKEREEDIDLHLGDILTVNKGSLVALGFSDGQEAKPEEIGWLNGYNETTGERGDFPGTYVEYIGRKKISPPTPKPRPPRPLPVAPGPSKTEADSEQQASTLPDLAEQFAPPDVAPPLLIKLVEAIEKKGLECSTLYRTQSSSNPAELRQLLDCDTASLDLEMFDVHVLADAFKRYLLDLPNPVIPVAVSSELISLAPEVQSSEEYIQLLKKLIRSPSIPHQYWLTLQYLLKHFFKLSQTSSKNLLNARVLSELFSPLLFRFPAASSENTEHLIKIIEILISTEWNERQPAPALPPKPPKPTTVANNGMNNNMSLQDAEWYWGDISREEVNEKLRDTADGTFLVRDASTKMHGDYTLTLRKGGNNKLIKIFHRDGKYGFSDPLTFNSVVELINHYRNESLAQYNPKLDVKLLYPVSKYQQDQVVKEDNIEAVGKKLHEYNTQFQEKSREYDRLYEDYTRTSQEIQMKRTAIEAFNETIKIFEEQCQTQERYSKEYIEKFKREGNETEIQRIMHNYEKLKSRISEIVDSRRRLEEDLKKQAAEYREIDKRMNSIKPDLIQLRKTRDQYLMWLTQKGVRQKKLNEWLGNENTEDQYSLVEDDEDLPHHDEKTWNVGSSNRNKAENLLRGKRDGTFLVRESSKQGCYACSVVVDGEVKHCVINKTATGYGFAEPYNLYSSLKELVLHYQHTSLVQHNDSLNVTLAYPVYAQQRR", "test": "Assay of purified PI 3-kinase activity (32P incorporation into phosphatidylinositol, TLC/scintillation)", "assay_type": "biochemical", "conditions": "bovine brain purified PI 3-kinase", "method": "In another, preferred, method, PI 3-kinase was prepared from bovine brain. Two bovine brains (wet weight about 900 g) were obtained from a local slaughterhouse within minutes of slaughter, packed on ice, and homogenized within one hour. Brains were trimmed of excess fat and blood vessels and then homogenized using a Tekmar Tissuemizer (Cincinnati, Ohio) at 4° C. in 20 mM of Tris(pH 8.3) containing 250 mM of sucrose, 6 mM of β-mercaptoethanol, 1 μg/ml of leupeptin, 1 μg/ml of pepstatin A, 0.4 mM of PMSF, and 1 mM of MgCl2.\nFollowing centrifugation for 60 minutes at 10,000×g, the DH of the supernatant (about 1200 mL) was lowered to 5.75 using dropwise addition of 1M acetic acid at 4° C. After stirring for an additional 15 minutes at 4° C., the solution was centrifuged for 60 minutes at 13,500×g. The supernatant was discarded. Pellets were resuspended in Buffer A (20 mM of Tris, pH 8.3, containing 6 mM of β-mercaptoethanol, 0.1 mM of ethylene glycol-bis(β-aminoethyl ether) N,N,N',N'-tetraacetic acid (EGTA), 1 μg/mL of leupeptin, 1 μg/mL of pepstatin A, and 1 mM of MgCl2), and loaded onto a Fast Flow Q Sepharose column (300 ml) at a flow rate of 5 mL/min at 4° C. After loading, the column was washed with 3 volumes of Buffer A containing 0.1M of KCl and the kinase was then eluted with a linear gradient of Buffer A/0.1M KCl to Buffer A/O.6M KCl at 3 mL/min over 7 volumes.\nFractions were assayed for PI 3-kinase activity using 10 μL of the fraction and phosphatidylinositol as substrate as described below. […] The PI 3-kinase pool was subjected to a 40% ammonium sulfate precipitation. Following centrifugation (60 minutes at 13,500×g), pellets were resuspended in Buffer B (10 mM of potassium phosphate, pH 7.4, containing 6 mM of β-mercaptoethanol, 1 μg/mL of leupeptin, 1 μg/mL of pepstatin A, and 1 mM of MgCl2), and loaded onto a 50 mL hydroxylapatite column (Calbiochem, Inc., La Jolla, Calif.) at 2.5 mL/minute. The column was washed with 150 mL Buffer B until the A280 baseline reached zero, and the kinase was then eluted with a linear gradient of 10-320 mM of KH2 PO4 at 1 mL/minute over 450 minutes.\nActive fractions were pooled and then loaded at 3 mL/minute onto a MonoS column (8 ml) (Pharmacia, Inc., Piscataway, N.J.) equilibrated in Buffer C (50 mM of MES, pH 6.2, containing 6 mM of β-mercaptoethanol, 0.1 mM of EGTA, 1 μg/mL of leupeptin, 1 μg/mL of pepstatin A, and 1 mM of MgCl2). PI 3-kinase was eluted with a linear gradient of 0-0.4M KCl in Buffer C over 120 minutes. […] Therefore, the MonoS flow-through was concentrated by tangential flow filtration on a Mini-Ultrasette Omega 50 K membrane (Filtron, Inc., Northborough, Mass.) and diluted in Buffer C to lower the conductivity. The material was then reloaded onto the MonoS column using the above conditions. […] Two pools of phosphatidylinositol kinase activity were obtained in the gradient; each was assayed for PI 3-kinase and PI 4-kinase activity.\nPool I from the MonoS column was diluted with Buffer A and chromatographed on MonoQ (1 ml) and ehted with a gradient of 0-0.4M KCl in Buffer A. The final pool was assayed for PI 3-kinase and PI 4-kinase activity.\nPI 3-kinase activity was measured as previously described by Matter, W. F., et al., Biochemical and Biophysical Research Communications, 186:624-631 (1992)."}, "[2]": {"test_system": "PI 3-kinase in v-sis NIH 3T3 cells", "test": "Assay of whole cell PI 3-kinase activity (PDGF-stimulated phosphatidylinositol-3-phosphate formation)", "assay_type": "cell-based", "conditions": "1.3 μM, 100 ng/mL PDGF, 10 min contact before stimulation", "method": "The cells were washed with phosphate-free DMEM and incubated in the same medium containing 0.1% fatty acid free bovine serum, albumin and 0.15 mCi/mL [^32 P]H3 PO4 (ICN Biomedicals, Irvine, Calif.) for 70 minutes. Inhibitor candidates were prepared using the above-stated procedure, and placed in contact with the cells for 10 minutes prior to their stimulation. The cells were stimulated with 100 ng/mL of PDGF for 10 minutes. To measure phosphatidylinositol-3-phosphates in the cells, the medium was removed and the cells washed once with phosphate buffered saline before adding 4 mL/flask of HCl:methanol (1:1 by volume). The cells were scraped from the flasks and total lipids were extracted by the method described by Folch, J., et al., J. Biol. Chem., 226:497-509 (1957). Deacylated lipids were prepared using methylamine via the method described by Clark, N. G., et al., BioChem J., 195: 301-306, (1981), and separated by HPLC using a 10 cm RAC II Partisil 5 SAX column (Whatman, Kent, U.K.) eluted with an NH4 H2 PO4 gradient at a flow of 0.8 mL/minute as described by Auger, K. R., et al., Methods in Inositide Research, pp. 159-166 [Irvine, R. F., Ed., Raven Press, Ltd., New York, N.Y. (1990)]. Detection of the eluting peaks was by a radioactive flow detector (Flo-One Beta, Model A515, Radiomatic Instruments, Meriden, Conn.). […]"}, "phospholipase C": {"test_system": "phospholipase C", "test": "Effect on phospholipase C", "assay_type": "biochemical"}, "PI 4-kinase [3]": {"test_system": "PI 4-kinase", "test": "Effect on PI 4-kinase", "assay_type": "biochemical"}, "[4]": {"molecular_target": "c-src protein tyrosine kinase (Homo sapiens, UniProt P12931)", "sequence (P12931 whole entry)": "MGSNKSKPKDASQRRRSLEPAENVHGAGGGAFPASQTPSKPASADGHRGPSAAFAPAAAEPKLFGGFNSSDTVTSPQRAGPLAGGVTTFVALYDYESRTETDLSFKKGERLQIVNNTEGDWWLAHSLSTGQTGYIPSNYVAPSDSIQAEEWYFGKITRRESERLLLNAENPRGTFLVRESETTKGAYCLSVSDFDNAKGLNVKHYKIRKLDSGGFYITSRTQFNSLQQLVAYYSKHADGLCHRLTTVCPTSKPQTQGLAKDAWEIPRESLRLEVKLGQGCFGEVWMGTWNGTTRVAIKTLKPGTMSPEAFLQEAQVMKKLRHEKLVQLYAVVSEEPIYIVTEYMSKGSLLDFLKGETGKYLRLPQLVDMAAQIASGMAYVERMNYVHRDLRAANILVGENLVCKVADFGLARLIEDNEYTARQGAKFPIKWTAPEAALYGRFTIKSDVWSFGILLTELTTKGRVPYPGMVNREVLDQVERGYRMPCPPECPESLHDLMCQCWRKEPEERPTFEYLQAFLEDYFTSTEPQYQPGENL", "test": "Effect on c-src protein tyrosine kinase", "assay_type": "biochemical"}, "protein kinase C [5]": {"test_system": "protein kinase C", "test": "Effect on protein kinase C", "assay_type": "biochemical"}, "PI 4-kinase [6]": {"test_system": "PI 4-kinase", "conditions": "Matter, et al.; cited from earlier work"}, "PI 3-kinase": {"test_system": "PI 3-kinase", "conditions": "Matter, et al.; cited from earlier work"}, "protein kinase C [7]": {"test_system": "protein kinase C", "conditions": "Matter, et al.; cited from earlier work"}, "[8]": {"conditions": "IC50 (ng/mL), 10 min preincubation, 20 μM ATP, 3% DMSO"}, "[9]": {"conditions": "IC50, molar value in parentheses, value printed in parentheses beside ng/mL"}, "[10]": {"conditions": "10 min preincubation, 20 μM ATP, 3% DMSO, read-out: IC50 (ng/mL) (converted)"}}, "note": "Read-outs that look alike come from different tables or passages of the source."}
{"smiles": "COC[C@H]1OC(=O)c2coc3c2[C@@]1(C)C1=CC[C@]2(C)C(=O)CC[C@H]2[C@@H]1C3=O", "note": "[II, Δ9,11-dehydrodesacetoxywortmannin]", "values": [{"measurement": "IC50", "setting": "[1]; [8]", "value": 54, "unit": "nM"}, {"measurement": "IC50", "setting": "[1]; [9]", "value": 59, "unit": "nM"}]}
{"smiles": "COC(=O)c1coc2c(O)c3c(c(C)c12)C=C[C@]1(C)C(=O)CC[C@@H]31", "note": "[IIIb, opened A-ring methyl ester of wortmannin]", "values": [{"measurement": "IC50", "setting": "[1]; [10]", "value": 4600, "unit": "nM"}]}
{"smiles": "COC[C@H]1OC(=O)c2coc3c2[C@@]1(C)C1=C(C3=O)[C@@H]2CCC(=O)[C@@]2(C)C[C@H]1OC(C)=O", "note": "[Ia, wortmannin]", "values": [{"measurement": "IC50", "setting": "[1]; [8]", "value": 4.2, "unit": "nM"}, {"measurement": "IC50", "setting": "[1]; [9]", "value": 4.2, "unit": "nM"}, {"measurement": "inhibition of platelet derived growth factor stimulated phosphatidylinositol-3-phosphate formation in whole cells", "setting": "[2]", "value": "almost complete inhibition"}, {"measurement": "effect on phospholipase C", "setting": "phospholipase C", "value": "no effect"}, {"measurement": "effect on PI 4-kinase", "setting": "PI 4-kinase [3]", "value": "no effect"}, {"measurement": "effect on c-src protein tyrosine kinase", "setting": "[4]", "value": "no effect"}, {"measurement": "effect on protein kinase C", "setting": "protein kinase C [5]", "value": "no effect"}]}
{"smiles": "COC[C@H]1OC(=O)c2coc3c2[C@@]1(C)C1=C(C3=O)[C@@H]2CCC(=O)[C@@]2(C)CC1", "note": "[Ib, 11-desacetoxywortmannin]", "values": [{"measurement": "IC50", "setting": "[1]; [10]", "value": 16.7, "unit": "nM"}, {"measurement": "IC50", "setting": "[1]; value printed in parentheses beside ng/mL, read-out: IC50, molar value in parentheses", "value": 16.7, "unit": "nM"}]}
{"smiles": "O=c1c(O)c(-c2ccc(O)c(O)c2)oc2cc(O)cc(O)c12", "note": "[quercetin]", "values": [{"measurement": "inhibition of PI 4-kinase", "setting": "PI 4-kinase [6]", "value": "inhibit"}, {"measurement": "inhibition of PI 3-kinase", "setting": "PI 3-kinase", "value": "inhibit"}, {"measurement": "inhibition of protein kinase C", "setting": "protein kinase C [7]", "value": "inhibit"}]}
